# Data reported in patent publication US8722720B2, “Imidazole derivatives as IDO inhibitors” (NewLink Genetics Corporation, priority 2010, dated 2014).
# Target: T1, purified human IDO protein (Homo sapiens, UniProt P14902)
# T1 construct: 2 extra amino acids (linker from the BglII cloning site of pQE70); made in house; host or cells: E. coli M15(pREP4) with plasmid pQE70-hIDO
# Test: Enzymatic IDO assay (kynurenine production, absorbance at 480 nm)
# Assay type: biochemical
# Conditions: recombinant human IDO; values reported in ranges; read-out: hIDO IC50
# Procedure: The inhibitors were initially diluted in DMSO at 100 mM and were diluted in potassium phosphate 50 mM, added to the reaction mixture at final concentrations raging from 1 mM to 5 nM and preincubated with the enzyme for 5 min at 25° C. The reaction was started by addition of L-tryptophan to 200 μM and incubated 15 min at 37° C. The reaction was stopped by addition of 0.5 vol of 30% trichloroacetic acid and incubated 30 min at 60° C. to hydrolyze N-formylkynurenine to kynurenine. The reaction was centrifuged at 3400 g for 5 min to remove precipitated protein and the supernatant was reacted with 2% (w/v) of p-dimethylaminobenzaldehyde in acetic acid. The reaction was incubated 10 min at 25° C. and read at 480 nm in a spectrophotometer. […] Nonlinear regressions and determination of the IC50 values were performed using the GraphPad Prism 4 software.
# T1 sequence (P14902 whole entry P110S/E119G): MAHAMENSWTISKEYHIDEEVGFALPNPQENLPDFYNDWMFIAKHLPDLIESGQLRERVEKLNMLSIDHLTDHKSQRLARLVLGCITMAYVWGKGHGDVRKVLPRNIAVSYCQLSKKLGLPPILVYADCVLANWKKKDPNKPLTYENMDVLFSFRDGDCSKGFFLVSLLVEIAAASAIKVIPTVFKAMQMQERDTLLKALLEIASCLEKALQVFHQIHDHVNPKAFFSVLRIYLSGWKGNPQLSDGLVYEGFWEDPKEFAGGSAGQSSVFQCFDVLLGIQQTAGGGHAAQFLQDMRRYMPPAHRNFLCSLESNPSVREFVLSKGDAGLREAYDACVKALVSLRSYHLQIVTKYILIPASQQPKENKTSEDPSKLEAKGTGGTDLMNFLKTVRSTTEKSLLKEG
row,SMILES,IC50 [µM]
1,"CCOC(=O)Nc1ccc(CCOc2ccccc2-c2c[nH]cn2)cc1 [compound 1104, ethyl 4-(2-(2-(1H-imidazol-4-yl)phenoxy)ethyl)phenylcarbamate]",1 to 10
2,"O=C(CN1CCOCC1)Nc1ccc(CCOc2ccccc2-c2c[nH]cn2)cc1 [compound 1214, N-(4-(2-(2-(1H-imidazol-4-yl)phenoxy)ethyl)phenyl)-2-morpholinoacetamide]",1 to 10
3,"CC(C)N(C(=O)Oc1ccc(Cl)cc1-c1c[nH]cn1)C(C)C [compound 1085, 4-chloro-2-(1H-imidazol-4-yl)phenyl diisopropylcarbamate]",> 100
4,"COC(=O)c1cccc(C(=O)Nc2ccc(CCOc3ccccc3-c3c[nH]cn3)cc2)c1 [compound 1261, methyl 3-((4-(2-(2-(1H-imidazol-4-yl)phenoxy)ethyl)phenyl)carbamoyl)benzoate]",< 1
5,"c1ccc2oc(-c3c[nH]cn3)cc2c1 [compound 1026, 4-(benzofuran-2-yl)-1H-imidazole]",> 100
6,"O=C(CC1CCOCC1)Nc1ccc(Cl)c(CCOc2ccccc2-c2c[nH]cn2)c1 [compound 1298, N-(3-(2-(2-(1H-imidazol-4-yl)phenoxy)ethyl)-4-chlorophenyl)-2-(tetrahydro-2H-pyran-4-yl)acetamide]",10 to 100
7,"C1=CCC(CCOc2ccccc2-c2c[nH]cn2)CC1 (stereo not shown) [compound 1191, 4-(2-(2-(cyclohex-3-en-1-yl)ethoxy)phenyl)-1H-imidazole]",1 to 10
8,"Fc1ccc(OCCc2ccccc2)c(-c2cnc[nH]2)c1 [compound 1292, 5-(5-fluoro-2-phenethoxyphenyl)-1H-imidazole]",10 to 100
9,"Nc1cccc(CC(=O)Nc2ccc(CCOc3ccccc3-c3c[nH]cn3)cc2)c1 [compound 1244, N-(4-(2-(2-(1H-imidazol-4-yl)phenoxy)ethyl)phenyl)-2-(3-aminophenyl)acetamide]",1 to 10
10,"Oc1cccc(OCCc2cccc(Cl)c2)c1-c1cnc[nH]1 [compound 1160, 3-(3-chlorophenethoxy)-2-(1H-imidazol-5-yl) phenol]",1 to 10
11,"c1cc(-c2c[nH]cn2)c2nsnc2c1 [compound 962, 4-(1H-imidazol-4-yl)benzo[c][1,2,5]thiadiazole]",10 to 100
12,"Oc1c(-c2c[nH]cn2)cc(Cl)c2cccnc12 [compound 956, 5-chloro-7-(1H-imidazol-4-yl)quinolin-8-ol]",> 100
13,"c1ccc2c(c1)NCn1cncc1-2 [compound 1114, 5,6-dihydroimidazo[1,5-c]quinazoline]",> 100
14,"O=C(Nc1cccc(OC2CCOC2)c1)Nc1ccc(CCOc2ccccc2-c2c[nH]cn2)c(Cl)c1 (stereo not shown) [compound 1346, 1-(4-(2-(2-(1H-imidazol-4-yl)phenoxy)ethyl)-3-chlorophenyl)-3-(3-(tetrahydrofuran-3-yloxy)phenyl)urea]",1 to 10
15,"Fc1ccc(-c2cnc[nH]2)cc1Cl [compound 1037, 5-(3-chloro-4-fluorophenyl)-1H-imidazole]",10 to 100
16,"CC(O)(COc1ccccc1-c1c[nH]cn1)c1cccs1 (stereo not shown) [compound 977, 1-(2-(1H-imidazol-4-yl)phenoxy)-2-(thiophen-2-yl)propan-2-ol]",10 to 100
17,"CCOC(=O)n1cnc(-c2ccccc2)c1 [compound 1047, ethyl 4-phenyl-1H-imidazole-1-carboxylate]",> 100
18,"O=C(Cc1cnccn1)Nc1ccc(CCOc2ccccc2-c2c[nH]cn2)cc1 [compound 1156, N-(4-(2-(2-(1H-imidazol-4-yl)phenoxy)ethyl)phenyl)-2-(pyrazin-2-yl)acetamide]",1 to 10
19,"O=C(Cc1cscn1)Nc1ccc(CCOc2ccccc2-c2c[nH]cn2)cc1 [compound 1226, N-(4-(2-(2-(1H-imidazol-4-yl)phenoxy)ethyl)phenyl)-2-(thiazol-4-yl)acetamide]",1 to 10
20,"Clc1ccc(COc2ccccc2-c2c[nH]cn2)cc1Cl [compound 1003, 4-(2-(3,4-dichlorobenzyloxy)phenyl)-1H-imidazole]",1 to 10
21,"O=C(Cc1ncccn1)Nc1ccc(CCOc2ccccc2-c2c[nH]cn2)cc1 [compound 1227, N-(4-(2-(2-(1H-imidazol-4-yl)phenoxy)ethyl)phenyl)-2-(pyrimidin-2-yl)acetamide]",1 to 10
22,"CC(COc1ccccc1-c1c[nH]cn1)c1ccccc1 (stereo not shown) [compound 978, 4-(2-(2-phenylpropoxy)phenyl)-1H-imidazole]",10 to 100
23,"CC(COc1ccccc1-c1c[nH]cn1)c1ccccc1Cl (stereo not shown) [compound 1109, 4-(2-(2-(2-chlorophenyl)propoxy)phenyl)-1H-imidazole]",10 to 100
24,"Oc1ncccc1-c1c[nH]cn1 [compound 1015, 3-(1H-imidazol-4-yl)pyridin-2-ol]",> 100

# Continued, values first:
row,IC50 [µM],SMILES
1,1 to 10,"CC(C)(C)C(=O)Oc1ccc(Br)cc1-c1c[nH]cn1 [compound 967, 4-bromo-2-(1H-imidazol-4-yl)phenyl pivalate]"
2,1 to 10,"O=C(CC1CCOCC1)Nc1ccc(CCOc2ccccc2-c2c[nH]cn2)cc1 [compound 1211, N-(4-(2-(2-(1H-imidazol-4-yl)phenoxy)ethyl)phenyl)-2-(tetrahydro-2H-pyran-4-yl)acetamide]"
3,< 1,"O=C(Nc1ccc(CCOc2ccccc2-c2c[nH]cn2)c(Cl)c1)NC1CCOCC1 [compound 1265, 1-(4-(2-(2-(1H-imidazol-4-yl)phenoxy)ethyl)-3-chlorophenyl)-3-(tetrahydro-2H-pyran-4-yl)urea]"
4,> 100,"Clc1ccc(OCc2ccccc2)c(-c2cncn2C2CCCCC2)c1 [compound 1060, 5-(2-(benzyloxy)-5-chlorophenyl)-1-cyclo-hexyl-1H-imidazole]"
5,10 to 100,"CC(=O)N(Cc1ccccc1)Cc1cccc(COc2ccccc2-c2c[nH]cn2)c1 [compound 959, N-(3-((2-(1H-imidazol-4-yl)phenoxy)methyl)benzyl)-N-benzylacetamide]"
6,10 to 100,"c1ccc(OCc2cccc(-c3c[nH]cn3)c2)cc1 [compound 996, 4-(3-(phenoxymethyl)phenyl)-1H-imidazole]"
7,> 100,"COC(=O)c1ccccc1CCOc1ccccc1-c1c[nH]cn1 [compound 934, methyl 2-(2-(2-(1H-imidazol-4-yl)phenoxy)ethyl) benzoate]"
8,10 to 100,"c1csc(-c2ccc(CCOc3ccccc3-c3c[nH]cn3)cc2)c1 [compound 1200, 4-(2-(4-(thiophen-2-yl)phenethoxy)phenyl)-1H-imidazole]"
9,10 to 100,"CC(C)(C)COC(=O)N1CCC(CCOc2ccccc2-c2c[nH]cn2)CC1 [compound 1149, neopentyl 4-(2-(2-(1H-imidazol-4-yl)phenoxy)ethyl)piperidine-1-carboxylate]"
10,1 to 10,"COC(=O)c1ccc(C(=O)Nc2ccc(CCOc3ccccc3-c3c[nH]cn3)cc2)cc1 [compound 1271, methyl 4-((4-(2-(2-(1H-imidazol-4-yl)phenoxy)ethyl)phenyl)carbamoyl)benzoate]"
11,> 100,"c1cc(-c2c[nH]cn2)ccn1 [compound 982, 4-(1H-imidazol-4-yl)pyridine]"
12,10 to 100,"Oc1cccc(OCCCc2ccccc2)c1-c1cnc[nH]1 [compound 1010, 2-(1H-imidazol-5-yl)-3-(3-phenylpropoxy) phenol]"
13,10 to 100,"c1nc(-c2ccc3cc[nH]c3c2)c[nH]1 [compound 961, 6-(1H-imidazol-4-yl)-1H-indole]"
